Earlier results on 3 compounds are cited in patent US8980929B2, “Substituted seven-membered heterocyclic compounds as dipeptidyl peptidase-iv inhibitors for the treatment of diabetes” (Merck Sharp & Dohme Corp., priority 2010, dated 2015).

One data set concerns the target DPP-4 (Homo sapiens (Human), UniProt P27487).
A further data set concerns cardiac allograft. The conditions noted are these: rats; doubled from day 7.
The subject of a further data set is hematopoiesis. To be noted: mouse, cyclophosphamide-induced neutropenia.

DPP-4, sequence (P27487 whole entry, species assumed): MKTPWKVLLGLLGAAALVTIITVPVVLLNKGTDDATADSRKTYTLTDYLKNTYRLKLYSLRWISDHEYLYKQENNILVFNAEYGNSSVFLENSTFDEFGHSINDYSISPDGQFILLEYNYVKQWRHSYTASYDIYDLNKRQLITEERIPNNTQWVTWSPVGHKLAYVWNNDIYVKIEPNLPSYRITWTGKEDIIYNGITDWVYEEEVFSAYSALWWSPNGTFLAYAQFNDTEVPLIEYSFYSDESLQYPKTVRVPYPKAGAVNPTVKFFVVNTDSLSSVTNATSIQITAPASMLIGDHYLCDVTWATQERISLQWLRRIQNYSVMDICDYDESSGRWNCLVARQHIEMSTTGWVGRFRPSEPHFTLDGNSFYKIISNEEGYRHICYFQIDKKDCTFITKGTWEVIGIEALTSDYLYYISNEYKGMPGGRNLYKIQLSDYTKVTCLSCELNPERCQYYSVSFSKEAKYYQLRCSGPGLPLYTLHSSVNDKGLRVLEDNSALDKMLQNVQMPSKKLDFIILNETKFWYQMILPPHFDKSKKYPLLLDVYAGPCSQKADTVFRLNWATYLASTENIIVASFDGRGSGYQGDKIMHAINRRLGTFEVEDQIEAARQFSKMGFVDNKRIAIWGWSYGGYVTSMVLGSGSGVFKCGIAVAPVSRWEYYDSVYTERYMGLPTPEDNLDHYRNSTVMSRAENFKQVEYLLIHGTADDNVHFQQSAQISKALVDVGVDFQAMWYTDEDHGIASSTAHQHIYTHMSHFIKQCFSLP

diprotin A: the “degradation of GRF to GRF[3-44] in plasma” value at DPP-4 was “prevented”. As for `CC(C)N1CCC(c2ccccc2)(c2ccccc2)CC1` [Prodipine, Pro-Pro-diphenyl-phosphonate], the cardiac allograft survival in the data set with cardiac allograft is recorded as 14 day. As to `CC(C)[C@H](N)C(=O)N1CCC[C@H]1B(O)O` [Val-Boro-Pro], the hematopoiesis entry in the data set on hematopoiesis is recorded as “stimulated hematopoiesis”.
